# From US20200281937A1, “USL-311 FOR USE IN THE TREATMENT OF CANCER” (Proximagen, LLC, priority 2017, published 2020)
# Columns and labels:
# Type in all cases: in vivo
# [1] = system: MBT2 (bladder cancer); assay: Syngeneic subcutaneous tumour growth inhibition, MBT2; details: MBT2 s.c. tumour in mice, 50 mg/kg p.o. 5 days out of 7, vs vehicle group
# Description: (§1) Nine syngeneic cell lines from […] different cancer types (EMT-6 (breast cancer), MBT2 (bladder cancer), CT26 (colorectal cancer), B16F10small, B16BL6 (both melanoma), A20 (lymphoma), LL/2 (lung cancer), Renca (kidney cancer), H22 (liver cancer)) were cultured and when in exponential growth were inoculated in mice subcutaneously with tumour cells in 0.1 mL of PBS for tumour development. After the mean tumour size reached approximately 80-120 mm^3 the mice were treated with 6-{4-[1-(Propan-2-yl)piperidin-4-yl]-1,4-diazepan-1-yl}-N-(pyridin-4-yl)pyridine-2-carboxamide (50 mg/kg p.o. 5 days out of 7). Tumour volumes were measured twice weekly at least in two dimensions using a caliper, and the volume expressed in mm^3 using the formula: V=0.5 a×b^2 where a and b are the long and short diameters of the tumour, respectively. Tumour growth was measured and inhibition of tumour growth reported in comparison to a vehicle treated group. All groups contained 8 mice. If the tumours in a group reached an average volume of 2000 mm^3, the experiment was terminated.
# [2] = system: B16F10small (melanoma); assay: Syngeneic subcutaneous tumour growth inhibition, B16F10small; details: B16F10small s.c. tumour in mice, 50 mg/kg p.o. 5 days out of 7, vs vehicle group
# Description: as §1
# [3] = system: B16BL6 (melanoma); assay: Syngeneic subcutaneous tumour growth inhibition, B16BL6; details: B16BL6 s.c. tumour in mice, 50 mg/kg p.o. 5 days out of 7, vs vehicle group
# Description: as §1
# [4] = system: H22 (liver cancer); assay: Syngeneic subcutaneous tumour growth inhibition, H22; details: H22 s.c. tumour in mice, 50 mg/kg p.o. 5 days out of 7, vs vehicle group
# Description: as §1
# [5] = system: CT26 (colorectal cancer); assay: Syngeneic subcutaneous tumour growth inhibition, CT26; details: CT26 s.c. tumour in mice, 50 mg/kg p.o. 5 days out of 7, vs vehicle group
# Description: as §1
# [6] = system: A20 (lymphoma); assay: Syngeneic subcutaneous tumour growth inhibition, A20; details: A20 s.c. tumour in mice, 50 mg/kg p.o. 5 days out of 7, vs vehicle group
# Description: as §1
# [7] = system: Renca (kidney cancer); assay: Syngeneic subcutaneous tumour growth inhibition, Renca; details: Renca s.c. tumour in mice, 50 mg/kg p.o. 5 days out of 7, vs vehicle group
# Description: as §1
# [8] = system: LL/2 (lung cancer); assay: Syngeneic subcutaneous tumour growth inhibition, LL/2; details: LL/2 s.c. tumour in mice, 50 mg/kg p.o. 5 days out of 7, vs vehicle group
# Description: as §1
# [9] = system: EMT-6 (breast cancer); assay: Syngeneic subcutaneous tumour growth inhibition, EMT-6; details: EMT6 s.c. tumour in mice, 50 mg/kg p.o. 5 days out of 7, vs vehicle group
# Description: as §1
smiles,measurement,setting,value
"CC(C)N1CCC(N2CCCN(c3cccc(C(=O)Nc4ccncc4)n3)CC2)CC1 [6-{4-[1-(Propan-2-yl)piperidin-4-yl]-1,4-diazepan-1-yl}-N-(pyridin-4-yl)pyridine-2-carboxamide]",% inhibition of tumour growth relative to control,[1],29.3%
same,% inhibition of tumour growth relative to control,[2],0%
same,% inhibition of tumour growth relative to control,[3],0%
same,% inhibition of tumour growth relative to control,[4],20.1%
same,% inhibition of tumour growth relative to control,[5],32.1%
same,% inhibition of tumour growth relative to control,[6],11.6%
same,% inhibition of tumour growth relative to control,[7],0%
same,% inhibition of tumour growth relative to control,[8],7.8%
same,% inhibition of tumour growth relative to control,[9],79.8%
